These results are taken from paper PMC8026400, “Osmium–arene complexes with high potency towards Mycobacterium tuberculosis” (Metallomics: Integrated Biometal Science, 2021).

For assay [1], the system named is Mtb. As to the kind of experiment: Minimum bactericidal concentration against Mtb (CFU plating). Format: cell-based, Mycobacterium tuberculosis. The following applies: for bactericidal character against actively growing Mtb: from correlation of MBC with MIC; for MBC (minimal bactericidal concentration): lowest concentration with no CFUs on 7H10 medium. On the procedure:
The minimum bactericidal activity (MBC) was determined by setting up a microtitre plate as performed for the MIC determination. Instead of adding resazurin, each well from the microtitre plate was plated on to solid 7H10 medium and the CFUs were determined after incubation at 37°C. The lowest concentration at which no CFUs were counted was taken as the MBC. The MBCs were carried out with three independent experimental repeats.

The subject of assay [2] is MRC5 (human foetal lung fibroblast) cells. As to the kind of experiment: Antiproliferative activity against human cell line, SRB assay. Format: cell-based. The following applies: 24 h drug exposure and 72 h recovery in drug-free medium. As to the method: MRC5 (human foetal lung fibroblast) cell lines were obtained from Public Health England (mycoplasma-free status confirmed at six-monthly intervals by internal and external screening). They were thawed upon receipt and the supernatant removed after centrifugation (1000 rpm, 5 min). Cells were re-suspended in DMEM culture medium (supplemented with 10% v/v FCS, 1% penicillin/streptomycin, and 1% L-glutamine) and grown as adherent monolayers at 310 K in a 5% CO2 humidified atmosphere. Cells were passaged using trypsin/EDTA after reaching ∼90% confluence. Trypsin activity was quenched by addition of excess medium, and the single-cell suspension passaged twice weekly. MRC5 fibroblasts were discarded after five passages.
Briefly, 5 × 10^3 cells (MRC5) were seeded in a 96-well plate using 0.15 mL of culture medium. After 48 h pre-incubation at 310 K, the supernatant was removed and cells exposed to six concentrations (0–100 µM) of osmium complex, for which exact concentrations were determined using ICP-OES (calibration standards for Os freshly prepared in 3.6% v/v nitric acid containing 100 mg L^–1 ascorbic acid and 10 mM thiourea). DMSO was used to aid solubility of Os complexes, but never exceeded 0.5% v/v in the final culture medium. Cells were exposed to Os complexes for 24 h, and then washed with PBS and allowed 72 h recovery time in drug-free medium. Cell viability was determined using the sulforhodamine B (SRB) assay. Cells were fixed using 50 µL of 50% TCA, incubated at 277 K for 1 h, and then stained using SRB dye (0.4% dye in 1% acetic acid). After 30 min, excess dye was removed by acetic acid washing, and then the stain liberated using Tris base (10 mM, pH 10.5). Absorbance was measured using a Thermo Scientific Multiskan FC microplate reader fitted with a 492-nm filter. Data were processed using Microsoft Excel and are reported as percentage survival relative to the untreated control. Sigmoidal dose/response curves were fitted using Origin 2016 to determine IC50. Data were acquired as duplicate of triplicate experiments, with a positive control of cisplatin (CDDP).

The next assay deals with Mtb H37Rv. As to the kind of experiment: MIC against Mtb H37Rv, resazurin microtitre assay. In kind it is cell-based, Mycobacterium tuberculosis. Particulars: 7-day exposure, Middlebrook 7H9 broth, 0.2% glycerol, 0.05% Tween 80, 10% ADC, three biological repeats.
Assay [3] has as its system Mtb. Particulars: comparison values, no reference given; cited from earlier work.

Converted amounts (≈) assume the structure as drawn.

`CN(C)c1ccc(N=Nc2ccccn2)cc1.Cc1ccc(C(C)C)cc1.F[P-](F)(F)(F)(F)F.[Cl][Os+]` [Complex 1]: in the assay with Mtb [1], the “bactericidal character against actively growing Mtb” value was “bactericidal” and the “MBC (minimal bactericidal concentration)” value is given as 12.5 µM. In assay [2], this compound displayed an IC50 of 7.1 ± 0.2 µM. In the assay with Mtb H37Rv, this compound had an MIC of 5 µM.

Regarding `CN(C)c1ccc(N=Nc2ccccn2)cc1.Cc1ccc(C(C)C)cc1.F[P-](F)(F)(F)(F)F.[I][Os+]` [Complex 2, [Os(AzPy-NMe2)I(p-cymene)]PF6], in the assay on Mtb [1], the “MBC (minimal bactericidal concentration)” value was determined as 6.25 µM. The compound also yielded an IC50 in assay [2] of 0.89 ± 0.01 µM. In the assay on Mtb H37Rv, this compound returned an MIC of 1.25 µM.

The compound `CN(C)c1ccc(N=Nc2ccccn2)cc1.F[P-](F)(F)(F)(F)F.[Cl][Os+].c1ccc(-c2ccccc2)cc1` [Complex 3] showed an IC50 in assay [2] of 16.9 ± 0.1 µM. In the assay on Mtb H37Rv, this compound gave a minimum inhibitory concentration (MIC) of 31.25 µM.

`CN(C)c1ccc(N=Nc2ccccn2)cc1.F[P-](F)(F)(F)(F)F.[I][Os+].c1ccc(-c2ccccc2)cc1` [Complex 4]: in the assay with Mtb [1], the “bactericidal character against actively growing Mtb” value was “bactericidal” and the “MBC (minimal bactericidal concentration)” value is on record as 6.25 µM. Further, in assay [2], the IC50 worked out at 0.42 ± 0.03 µM. In the assay on Mtb H37Rv, this compound registered an MIC of 2.5 µM.

Turning to `CN(C)c1ccc(N=Cc2ccccn2)cc1.Cc1ccc(C(C)C)cc1.F[P-](F)(F)(F)(F)F.[Cl][Os+]` [Complex 5], it took 7.6 ± 0.9 µM to reach half-maximal inhibition in assay [2] (IC50). Moreover, the MIC against Mtb H37Rv came out at 31.25 µM.

Compound `CN(C)c1ccc(N=Cc2ccccn2)cc1.Cc1ccc(C(C)C)cc1.F[P-](F)(F)(F)(F)F.[I][Os+]` [Complex 6] gave a half-inhibitory concentration (IC50) in assay [2] of 13 ± 2 µM. In the assay on Mtb H37Rv, this compound returned an MIC of 7.81 µM.

Consider `CN(C)c1ccc(N=Nc2ccccn2)cc1.Cc1ccc(C(C)C)cc1.[Cl-].[I][Os+]` [Complex 7], for which the IC50 in assay [2] worked out at 0.68 ± 0.03 µM. For the same compound, the MIC against Mtb H37Rv is reported as 1.25 µM.

As for `CN(C)c1ccc(N=Nc2ccccn2)cc1.Cc1ccc(C(C)C)cc1.[I-].[I][Os+]` [Complex 8], the 50% inhibitory concentration (IC50) in assay [2] was determined as 0.42 ± 0.01 µM. The compound also yielded an MIC in the assay on Mtb H37Rv of 1.25 µM.

Take `Cc1ccc(C(C)C)cc1.F[P-](F)(F)(F)(F)F.[Cl][Os+].c1ccc(N=Nc2ccccn2)cc1` [Complex 9]: the IC50 in assay [2] amounted to 15 ± 2 µM. The compound further registered an MIC against Mtb H37Rv of 15.6 µM.

`Cc1ccc(C(C)C)cc1.F[P-](F)(F)(F)(F)F.[I][Os+].c1ccc(N=Nc2ccccn2)cc1` [Complex 10] had an IC50 in assay [2] of 0.79 ± 0.06 µM. In addition, in the assay with Mtb H37Rv, the MIC came out at 5 µM.

`Brc1ccc(N=Nc2ccccc2)nc1.Cc1ccc(C(C)C)cc1.F[P-](F)(F)(F)(F)F.[Cl][Os+]` [Complex 11]: the IC50 in assay [2] amounted to 18 ± 1 µM. The compound further came in with an MIC in the assay on Mtb H37Rv of 125 µM.

As to `Cc1ccc(C(C)C)cc1.F[P-](F)(F)(F)(F)F.Fc1ccc(N=Nc2ccccc2)nc1.[I][Os+]` [Complex 12], the IC50 in assay [2] was 9.1 ± 0.6 µM. The compound further came in with an MIC with Mtb H37Rv of 15.6 µM.

In turn, `F[P-](F)(F)(F)(F)F.Fc1ccc(N=Nc2ccccc2)nc1.[I][Os+].c1ccc(-c2ccccc2)cc1` [Complex 13] yielded an IC50 in assay [2] of 5.2 ± 0.7 µM. The MIC against Mtb H37Rv came out at 62.5 µM.

The compound `Cc1ccc(C(C)C)cc1.Clc1ccc(N=Nc2ccccc2)nc1.F[P-](F)(F)(F)(F)F.[I][Os+]` [Complex 14] returned an IC50 in assay [2] of 16 ± 2 µM. The compound further yielded an MIC in the assay on Mtb H37Rv of 62.5 µM.

In assay [2], `F[P-](F)(F)(F)(F)F.Oc1ccc(N=Cc2ccccn2)cc1.[I][Os+].c1ccc(-c2ccccc2)cc1` [Complex 15] had an IC50 of 13.5 ± 0.9 µM. The minimal inhibitory concentration (MIC) in the assay with Mtb H37Rv was found to be 5 µM.

In the assay on Mtb H37Rv (Mycobacterium tuberculosis, H37RV, 168 h), `CO[C@H]1/C=C/O[C@@]2(C)Oc3c(C)c(O)c4c(O)c(c(/C=N/N5CCN(C)CC5)c(O)c4c3C2=O)NC(=O)/C(C)=C\C=C\[C@H](C)[C@H](O)[C@@H](C)[C@@H](O)[C@@H](C)[C@H](OC(C)=O)[C@@H]1C` [Rifampicin, reference compound] displayed an MIC of 0.38 to 0.76 µM (≈ 0.313 to 0.625 µg/mL).

`CC[C@@H](CO)NCCN[C@@H](CC)CO` [ethambutol]: in the assay with Mtb [3], the “MIC of current clinical TB drugs” value is recorded as roughly 5 µM.

For the compound `NNC(=O)c1ccncc1` [isoniazid], the “MIC of current clinical TB drugs” value with Mtb [3] was roughly 1 µM.

With `[H]/N=C(/N)N[C@H]1[C@H](O)[C@@H](O)[C@H](O[C@@H]2O[C@@H](C)[C@](O)(C=O)[C@H]2O[C@@H]2O[C@@H](CO)[C@H](O)[C@@H](O)[C@@H]2NC)[C@@H](N/C(N)=N\[H])[C@@H]1O` [streptomycin], the “MIC of current clinical TB drugs” value in the assay on Mtb [3] is roughly 9 µM.

For capreomycin, the “MIC of current clinical TB drugs” value in the assay on Mtb [3] is given as roughly 3 µM.
